This passage reports Kd results from paper PMC6160570, “Maprotiline Prevents Monocrotaline-Induced Pulmonary Arterial Hypertension in Rats” (Frontiers in Pharmacology, 2018).

SMILES strings stand for the structures. Read-outs that look alike come from different tables or passages of the source.

For test [1], the target named is T1, soluble guanylate cyclase (sGC), α1/β1 heterodimer (Homo sapiens, UniProt Q02108+Q02153).
T1 sequence (Q02153 1-619): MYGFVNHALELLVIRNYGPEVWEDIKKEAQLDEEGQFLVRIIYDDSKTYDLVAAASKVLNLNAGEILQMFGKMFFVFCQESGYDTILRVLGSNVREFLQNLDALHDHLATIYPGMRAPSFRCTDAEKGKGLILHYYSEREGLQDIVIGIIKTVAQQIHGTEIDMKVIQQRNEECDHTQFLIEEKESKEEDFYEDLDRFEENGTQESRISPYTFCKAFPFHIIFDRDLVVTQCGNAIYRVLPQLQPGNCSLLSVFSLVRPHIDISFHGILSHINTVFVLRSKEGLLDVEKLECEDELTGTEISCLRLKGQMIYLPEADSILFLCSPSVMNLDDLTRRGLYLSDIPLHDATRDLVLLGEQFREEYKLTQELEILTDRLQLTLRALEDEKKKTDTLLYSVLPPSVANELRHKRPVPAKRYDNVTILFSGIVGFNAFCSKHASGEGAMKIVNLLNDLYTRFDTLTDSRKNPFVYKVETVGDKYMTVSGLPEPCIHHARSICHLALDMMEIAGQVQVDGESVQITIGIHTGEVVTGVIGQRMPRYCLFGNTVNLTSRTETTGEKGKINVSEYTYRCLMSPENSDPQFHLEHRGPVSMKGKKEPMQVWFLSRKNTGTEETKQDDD
T1 sequence (Q02108 1-690): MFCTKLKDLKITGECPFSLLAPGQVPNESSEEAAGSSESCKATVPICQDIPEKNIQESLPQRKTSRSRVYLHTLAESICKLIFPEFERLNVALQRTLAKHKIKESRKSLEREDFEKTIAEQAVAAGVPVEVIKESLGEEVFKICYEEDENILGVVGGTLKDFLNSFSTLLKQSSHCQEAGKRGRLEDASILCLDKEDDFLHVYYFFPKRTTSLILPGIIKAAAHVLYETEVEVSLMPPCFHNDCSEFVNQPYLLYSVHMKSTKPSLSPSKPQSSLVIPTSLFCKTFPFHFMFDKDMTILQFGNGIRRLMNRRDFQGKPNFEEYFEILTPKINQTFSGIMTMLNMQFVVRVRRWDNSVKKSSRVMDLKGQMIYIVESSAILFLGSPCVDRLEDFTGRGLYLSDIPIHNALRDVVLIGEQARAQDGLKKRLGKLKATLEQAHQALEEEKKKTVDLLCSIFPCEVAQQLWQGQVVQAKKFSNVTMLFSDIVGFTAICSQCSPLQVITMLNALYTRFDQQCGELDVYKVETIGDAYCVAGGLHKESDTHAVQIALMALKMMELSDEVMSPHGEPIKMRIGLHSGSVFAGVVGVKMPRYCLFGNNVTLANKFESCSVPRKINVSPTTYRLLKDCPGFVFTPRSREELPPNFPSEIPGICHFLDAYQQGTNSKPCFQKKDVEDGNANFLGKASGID
Description: SPR (Biacore T200, sGC immobilized on CM5 chip), positive control. The class given is binding. Also noted: gene GUCY1B1; full-length recombinant sGC (α1 and β1 subunits coexpressed in Sf9 cells); with sGC α1 subunit (GUCY1A1, Q02108).

Test [2] addresses T1, soluble guanylate cyclase (sGC), α1/β1 heterodimer. Further details: gene GUCY1B1.

Take `OCc1ccc(-c2nn(Cc3ccccc3)c3ccccc23)o1` [YC-1]: the Kd in test [1] came out at 2180 nM.

Take `CNCCCC12CCC(c3ccccc31)c1ccccc12` [maprotiline]: the Kd in test [2] was determined as 307 nM.
